Measured values: patent EP0623675A1, “Altered affinity polypeptides of metal chelate binding antibodies” (HYBRITECH INCORPORATED, priority 1992, dated 1994)

What was measured:
[1] = tested on: CHA255 Fab' variant clone 3.2.1 (heavy chain CDR H1/H3 mutagenesis, Fig. 3B); assay: Scatchard analysis of phage expressed altered CHA255 Fab' with InEOTUBE; type: binding, murine; settings: compared with native phage expressed CHA255 Fab'; crude periplasm Fab', about 10 nM; cold InEOTUBE 2.43 nM to 0.082 nM
Description: (§1) Free Fab' was expressed and isolated from the periplasmic space of the non-suppressor strain MK30-3 as previously described (International Patent Publication No. WO 92/06204). The concentration of antibody in periplasm preparations was estimated by comparing the ELISA signal generated by aliquots of periplasm of mutant clones to a standard curve using purified CHA255 Fab'. Data points for the Scatchard plots were prepared by incubating antibody (100 µl, approximately 10 nM) diluted in 1X PBS, 1% BSA as crude periplasm fraction with dilutions of cold InEOTUBE (2.43 nM to 0.082 nM) in 1X PBS, 1% BSA hapten spiked with ¹¹¹InEOTUBE as a tracer for […]. This assay is described in greater detail in Example 3, below. The sample was centrifuged at 6,000 rpm for 10 minutes in an Amicon Centrifree™ micro-concentrator (Amicon, Grace Co., Danvers, MA), 10,000 MW cutoff, to separate free hapten from hapten bound to Fab'. Total and free counts were determined and the slope of a plot of the ratio of bound hapten to free hapten versus the concentration of bound hapten was calculated for affinity constant (Ka).
(§2) The following were added to a 96 well microtiter plate, in triplicate: • a. 25µl EOTUBE-¹¹¹In-ground state in at 4.40pg/µl; • b. 25µl EOTUBE-ground state in at serial dilutions of the 0.40ng/µl and 0.36ng/µl made above. Eleven dilutions each plus a zero giving 24 points with a range of 10ng/well down to 4.40pg/well plus a zero. Dilute with RPMI containing 10% horse serum; • c. 25µl RPMI containing 10% horse serum; • d. 25µl antibody of interest. (concentration determined by sensitivity assay); and • e. 20µl sheep anti-mouse IgG coupled to sepharose beads (same as used in sensitivity curve assay).
(§3) The plate was incubated overnight on a rotator at room temperature. The contents of wells were aspirated onto glass-fiber filter paper, cut out and counted. Molar bound vs. bound/free were graphed. The linear regression of the part of the curve that is a straight line was determined. Ka was the negative of the slope.

[2] = tested on: CHA255 Fab' variant clone 3.7.1 (heavy chain CDR H1/H3 mutagenesis, Fig. 3B); assay: as above; type: binding, murine; settings: compared with native CHA255 Fab' (synthesized and phage expressed); crude periplasm Fab', about 10 nM; cold InEOTUBE 2.43 nM to 0.082 nM
Description: as §1, §2, §3

[3] = tested on: CHA255 Fab' variant clone 3.1.1 (heavy chain CDR H1/H3 mutagenesis, Fig. 3B); assay: as above; type: binding, murine; settings: compared with native CHA255 Fab' (synthesized and phage expressed); crude periplasm Fab', about 10 nM; cold InEOTUBE 2.43 nM to 0.082 nM
Description: as §1, §2, §3

[4] = tested on: CHA255 Fab' variant clone 1.1.1 (heavy chain CDR H1/H3 mutagenesis, Fig. 3B); assay: as above; type: binding, murine; settings: compared with native CHA255 Fab' (synthesized and phage expressed); crude periplasm Fab', about 10 nM; cold InEOTUBE 2.43 nM to 0.082 nM
Description: as §1, §2, §3

[5] = tested on: CHA255 Fab' variant clone 4.2.1 (heavy chain CDR H1/H3 mutagenesis, Fig. 3B); assay: as above; type: binding, murine; settings: compared with native CHA255 Fab' (synthesized and phage expressed); crude periplasm Fab', about 10 nM; cold InEOTUBE 2.43 nM to 0.082 nM
Description: as §1, §2, §3

[6] = tested on: monoclonal antibody CHA255; assay: Antibody CHA255 binding assay (Centrifree ultrafiltration of labeled chelate); design: species or system murine; settings: radiolabeled chelate 5 nM, antibody 133 nM, PBS pH 7.4, 15 minutes at room temperature
Description: As indicated, the monoclonal antibody CHA255 is specific for the In(III)-benzyl EDTA complex. The affinity and characterization have been described previously by Reardon et al. in Nature 316:265 (1985). Binding assays were performed to verify the identity of the haptens designated as DB-I to DB-X and DDB-I to DDB-III. […] For the ⁹⁰Yttrium (III) hapten chelate, in particular, CHA255 binding required the presence of the Indiumbenzyl-EDTA moiety as provided in the compounds of the invention. The labeled DB and DDB hapten chelates were combined with antibody CHA255 in PBS (10 mM sodium phosphate, 150 mM sodium chloride, pH 7.4) containing 44 µg/mL of human serum albumin and 0.05% Triton-X-100 detergent. Concentrations of the radiolabeled hapten chelating agent and antibody were 5 nM and 133 nM, respectively. The mixture was vortexed and allowed to stand at room temperature for 15 minutes, after which it was transferred to an Amicon Centrifree™ device, with a NMW limit of 30,000, and centrifuged to separate antibody-bound chelate from free hapten chelate. The species bound to the antibody was retained by the membrane and the free chelate flowed through the membrane into the filtrate. The extent of antibody-hapten chelate binding was then determined.

4-[N'[2-hydroxyethyl]-thioureido]benzyl EDTA [InEOTUBE]
binding affinity (affinity constant Ka for InEOTUBE) [1]: approximately one order of magnitude less than the native phage expressed Fab' | binding affinity (affinity constant Ka for InEOTUBE) [2]: approximately equivalent | binding affinity (affinity constant Ka for InEOTUBE) [3]: approximately equivalent | binding affinity (affinity constant Ka for InEOTUBE) [4]: approximately equivalent | binding affinity (affinity constant Ka for InEOTUBE) [5]: approximately equivalent

diethylenetriaminepentaacetic acid [⁹⁰Yttrium (III) DTPA]
antibody-hapten chelate binding [6]: neither ⁹⁰Yttrium (III) or ¹¹¹Indium (III) DTPA, alone, bound
